Results taken from patent US5936105A, “14-EPI-19-nor-vitamin D compounds and methods” (Tetrionics, Inc., priority 1998, dated 1999).
“Also recorded” adds a separate entry of the source.

Experiments:
HL-60 cells [1] = assay: Differentiation of HL-60 cells (NBT reduction assay); assay type: cell-based, human; conditions: for Activity vs. 1,25(OH)2 D3: HL-60 differentiation, ratio to 1,25(OH)2 D3; for EC50: Homo sapiens, read-out: EC50 (concentration to induce differentiation in 50% of the cells; text: IC50), NBT reduction, HL-60; for in vitro differentiative (D) and anti-proliferative (I) activity, in words: HL-60, differentiation and proliferation; for differentiative activity (D) used for T.P.: relative to 1,25-(OH)2 D3
Experimental: Differentiation of HL-60 Cells.
The ability of the 14-epi-19-nor-vitamin analogs and the corresponding 19-nor-vitamin D analogs to induce differentiation in the human HL-60 promyelocyte cell line was measured by a nitroblue tetrazolium (NBT) reduction assay.

HL-60 cells [2] = assay: Inhibition of HL-60 cell proliferation (thymidine incorporation assay); assay type: cell-based, human; conditions: for Activity vs. 1,25(OH)2 D3: HL-60 proliferation, ratio to 1,25(OH)2 D3; for EC50: Homo sapiens, read-out: EC50 (50% reduction in thymidine incorporation; text: IC50), thymidine incorporation, HL-60; for anti-proliferative activity (I) used for T.P.: relative to 1,25-(OH)2 D3
Experimental: Inhibition of HL-60 Cell Proliferation.
The ability of the 14-epi-19-nor-vitamin D analogs and the corresponding 19-nor-vitamin D analogs to inhibit proliferation of the HL-60 cell line was measured by thymidine incorporation assay.

D deficient rat [3] = assay: In vivo calcemic activity: intestinal calcium transport (everted gut sac technique); conditions: for TRANSPORT (S/M): intraperitoneal, mean ± SEM
Experimental: (§1) In vivo Calcemic Activity
(§2) These studies were carried out with five to six rats per group. Male weanling rats were fed a vitamin D-deficient diet for one week and then shifted to the same diet but with calcium removed for three weeks. The hypocalcemic rats were dosed intraperitoneally with the indicated dose of compound per day for a total of 7 days. Twenty-four hours after the last dose all animals were killed by decapitation and serum calcium was measured by atomic absorption spectroscopy in the presence of 1.0% lanthanium chloride. Intestinal calcium transport was measureed by the everted gut sac technique of Martin and Deluca.

D deficient rat [4] = assay: In vivo calcemic activity: serum calcium / bone calcium mobilization (atomic absorption spectroscopy); conditions: for SERUM CALCIUM: intraperitoneal, mean ± SEM; for effect on bone, in words: rat, in vivo
Experimental: as §1, §2

[5] = molecular target: T1, Procine Intestinal Nuclear Vitamin D Receptor (Sus scrofa, UniProt A3RGC1); conditions: VDR binding, ratio to 1,25(OH)2 D3
T1 sequence (A3RGC1 1-427): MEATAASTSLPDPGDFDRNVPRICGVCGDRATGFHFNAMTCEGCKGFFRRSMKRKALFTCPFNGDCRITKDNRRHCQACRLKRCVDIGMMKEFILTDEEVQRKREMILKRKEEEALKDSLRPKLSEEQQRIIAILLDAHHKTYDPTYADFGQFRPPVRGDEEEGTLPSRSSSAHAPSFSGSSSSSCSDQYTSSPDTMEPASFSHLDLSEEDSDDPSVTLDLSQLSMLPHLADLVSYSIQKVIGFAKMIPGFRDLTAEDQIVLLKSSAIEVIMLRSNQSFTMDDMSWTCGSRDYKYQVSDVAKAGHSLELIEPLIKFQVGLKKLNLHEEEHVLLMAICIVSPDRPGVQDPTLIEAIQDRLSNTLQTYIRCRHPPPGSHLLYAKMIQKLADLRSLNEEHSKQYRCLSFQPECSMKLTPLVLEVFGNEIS

[6] = molecular target: T1, Procine Intestinal Nuclear Vitamin D Receptor; assay: biochemical
Excerpt: Binding to the Procine Intestinal Nuclear Vitamin D Receptor.

leukemia cells = conditions: U.S. Pat. No. 4,391,802; cited from earlier work
D deficient rat [7] = assay: In vivo calcemic activity, overall; conditions: for calcemic activity used for T.P.: relative to 1,25-(OH)2 D3; for calcemic activity, in words: relative to 1,25-(OH)2 D3 or 19-nor compounds
Experimental: as §1, §2

D deficient rat [8] = assay: In vivo activation of pro-drug (25-hydroxylation by the liver); conditions: inferred from in vivo activity
Experimental: as §2
The in vivo results also establish the PRO-DRUG concept for the 14-epi-19-nor-25-deoxy-analog. […] This minimal bone activity resulting in lower calcemic toxicity may have important clinical implications.

[9] = TABLE 2, 250 pmol/d/7 days, 5 rats
[10] = TABLE 2, 625 pmol/d/7 days, 5 rats
[11] = TABLE 2, 1300 pmol/d/7 days, 5 rats
[12] = TABLE 3, 260 pmol/d/7 days, 6 rats
[13] = TABLE 3, 625 pmol/d/7 days, 6 rats
[14] = TABLE 3, 1300 pmol/d/7 days, 6 rats
[15] = TABLE 1, 250 pmol/d/7 days, 5 rats
[16] = TABLE 1, 625 pmol/d/7 days, 5 rats
[17] = TABLE 1, 1300 pmol/d/7 days, 5 rats

SMILES	Activity vs. 1,25(OH)2 D3 (HL-60 cells [1])	EC50 (HL-60 cells [1])	Activity vs. 1,25(OH)2 D3 (HL-60 cells [2])	EC50 (HL-60 cells [2])	TRANSPORT (S/M) (D deficient rat [3]; [9])	TRANSPORT (S/M) (D deficient rat [3]; [10])	TRANSPORT (S/M) (D deficient rat [3]; [11])	SERUM CALCIUM (D deficient rat [4]; [9])	SERUM CALCIUM (D deficient rat [4]; [10])	SERUM CALCIUM (D deficient rat [4]; [11])	Activity vs. 1,25(OH)2 D3 [5]	EC50 [6]	TRANSPORT (S/M) (D deficient rat [3]; [12])	SERUM CALCIUM (D deficient rat [4]; [12])	TRANSPORT (S/M) (D deficient rat [3]; [15])	TRANSPORT (S/M) (D deficient rat [3]; [16])	SERUM CALCIUM (D deficient rat [4]; [15])	SERUM CALCIUM (D deficient rat [4]; [16])	also measured
C[C@@H](CCCC(C)(C)O)[C@H]1CC[C@H]2/C(=C/C=C3C[C@@H](O)C[C@H](O)C3)CCC[C@]12C [20-epi-19-nor-1,25(OH)2 D3, reference compound]	25	0.2 nM	7.5	4 nM	7.3 ± 0.1 S/M	8.2 ± 0.7 S/M	8.7 ± 0.7 S/M	5.7 ± 0.5 mg/100 ml	6.3 ± 0.4 mg/100 ml	6.6 ± 0.5 mg/100 ml	1.0	0.8 nM							
C=C1/C(=C\C=C2/CCC[C@]3(C)[C@@H]([C@H](C)CCCC(C)(C)O)CC[C@@H]23)C[C@@H](O)C[C@@H]1O [1,25(OH)2 D3, 1α,25-dihydroxyvitamin D3]					7.8 ± 0.4 S/M			5.3 ± 0.3 mg/100 ml					7.18 ± 0.47 S/M	5.36 ± 0.27 mg/100 ml					antileukemic activity (induction of differentiation), in words (leukemia cells): potent antileukemic activity
C[C@@H](CCCC(C)(C)O)[C@H]1CC[C@@H]2/C(=C/C=C3C[C@@H](O)C[C@H](O)C3)CCC[C@@]21C [[29], 14-epi-20-epi-19-nor-1α,25-dihydroxyvitamin D3]	10.0	0.5 nM	45	0.66 nM							0.33	2.5 nM	4.36 ± 0.30 S/M	4.02 ± 0.16 mg/100 ml					in vitro differentiative (D) and anti-proliferative (I) activity, in words (HL-60 cells [1]): most potent analog; times more potent than 1,25-(OH)2 D3 (D) (HL-60 cells [1]; differentiative (D)): 10 times; differentiative activity (D) used for T.P. (HL-60 cells [1]): 8.0; times more potent than 1,25-(OH)2 D3 (I) (HL-60 cells [2]; anti-proliferative (I)): 45 times; anti-proliferative activity (I) used for T.P. (HL-60 cells [2]): 56; TRANSPORT (S/M) (D deficient rat [3]; [13]): 6.94 ± 0.27 S/M; TRANSPORT (S/M) (D deficient rat [3]; [14]): 7.14 ± 0.44 S/M; activity on gut, in words (D deficient rat [3]; rat, in vivo): only minimal gut activity; gut activity relative to the natural hormone (D deficient rat [3]; rat, in vivo): 20%; SERUM CALCIUM (D deficient rat [4]; [13]): 3.66 ± 0.06 mg/100 ml; SERUM CALCIUM (D deficient rat [4]; [14]): 4.10 ± 0.20 mg/100 ml; effect on bone, in words (D deficient rat [4]): no effect on bone at any of the doses tested; calcemic activity used for T.P. (D deficient rat [7]): < 0.2; calcemic activity, in words (D deficient rat [7]): greatly reduced
C[C@H](CCCC(C)(C)O)[C@H]1CC[C@H]2/C(=C/C=C3C[C@@H](O)C[C@H](O)C3)CCC[C@]12C [19-nor-1,25(OH)2 D3, 19-nor-1,25-dihydroxyvitamin D3, reference compound]	0.40	13 nM	0.5	60 nM	4.8 ± 0.4 S/M	4.9 ± 0.5 S/M	4.8 ± 0.5 S/M	3.6 ± 0.1 mg/100 ml	3.6 ± 0.2 mg/100 ml	3.7 ± 0.2 mg/100 ml	0.2	4.2 nM							
CC(C)CCC[C@@H](C)[C@H]1CC[C@H]2/C(=C/C=C3C[C@@H](O)C[C@H](O)C3)CCC[C@]12C [19-nor-1(OH)D3]															6.3 ± 0.7 S/M	8.6 ± 0.7 S/M	3.4 ± 0.2 mg/100 ml	3.7 ± 0.2 mg/100 ml	
C[C@H](CCCC(C)(C)O)[C@H]1CC[C@@H]2/C(=C/C=C3C[C@@H](O)C[C@H](O)C3)CCC[C@@]21C [[27], 14-epi-19-nor-1α,25-dihydroxyvitamin D3]	0.33	15 nM	0.4	80 nM	4.1 ± 0.4 S/M	3.2 ± 0.4 S/M	3.5 ± 0.3 S/M	3.6 ± 0.2 mg/100 ml	3.2 ± 0.1 mg/100 ml	3.4 ± 0.1 mg/100 ml	0.18	4.5 nM							in vitro differentiative (D) and anti-proliferative (I) activity, in words (HL-60 cells [1]): approximately half as active as 1,25-(OH)2 D3; differentiative activity (D) used for T.P. (HL-60 cells [1]): 0.33; cellular activity, in words (HL-60 cells [1]; relative to native hormone): cellular activity similar to the native hormone; anti-proliferative activity (I) used for T.P. (HL-60 cells [2]): 0.4; calcemic activity relative to the natural hormone (D deficient rat [7]; 5× the dose of 1,25-(OH)2 D3): less than 20%; calcemic activity used for T.P. (D deficient rat [7]): < 0.2; calcemic activity, in words (D deficient rat [7]): no calcemic activity at 5× the dose of 1,25-(OH)2 D3; also recorded: greatly reduced calcemic activity
CC(C)CCC[C@H](C)[C@H]1CC[C@@H]2/C(=C/C=C3C[C@@H](O)C[C@H](O)C3)CCC[C@@]21C [[28], 14-epi-20-epi-19-nor-1α-hydroxyvitamin D3]											< 0.0008	> 1000 nM	3.80 ± 0.23 S/M	3.96 ± 0.05 mg/100 ml					TRANSPORT (S/M) (D deficient rat [3]; [13]): 5.14 ± 0.66 S/M; TRANSPORT (S/M) (D deficient rat [3]; [14]): 5.90 ± 0.49 S/M; activity on gut, in words (D deficient rat [3]; rat, in vivo): reduced activity on gut compared to the 25-hydroxy drug compound; SERUM CALCIUM (D deficient rat [4]; [13]): 4.11 ± 0.10 mg/100 ml; SERUM CALCIUM (D deficient rat [4]; [14]): 3.79 ± 0.05 mg/100 ml; effect on bone, in words (D deficient rat [4]): no activity on bone; in vivo activation / 25-hydroxylation / clearance, in words (D deficient rat [8]): has been 25-hydroxylated by the liver; also recorded: activated in vivo to the active drug product
C=C1/C(=C\C=C2/CCC[C@]3(C)[C@@H]([C@H](C)CCCC(C)C)CC[C@@H]23)C[C@@H](O)C[C@@H]1O [1(OH)D3, 1α-hydroxyvitamin D3]															8.1 ± 0.1 S/M	10.6 ± 1.4 S/M	4.8 ± 0.3 mg/100 ml	5.9 ± 0.1 mg/100 ml	antileukemic activity (induction of differentiation), in words (leukemia cells): potent antileukemic activity
CC(C)CCC[C@H](C)[C@H]1CC[C@H]2/C(=C/C=C3C[C@@H](O)C[C@H](O)C3)CCC[C@]12C [20-epi-19-nor-1(OH)D3]											0.0013	600 nM			7.6 ± 0.5 S/M	9.2 ± 1.1 S/M	4.1 ± 0.1 mg/100 ml	5.4 ± 0.3 mg/100 ml	TRANSPORT (S/M) (D deficient rat [3]; [17]): 11.7 ± 1.4 S/M; SERUM CALCIUM (D deficient rat [4]; [17]): 6.7 ± 0.2 mg/100 ml
